A short description of this data set: Bulk density and tapped density of mesalamine powder (USP Test 616). The note with it: mesalamine used to prepare the composition as per Example 3. The class given is physicochemical. The text has this: Important physicochemical characteristics of powders are the density properties such as bulk and tapped density, weight variation and flow properties such as angle of repose. Bulk density is the undisturbed packing density of that substance and tapped density relates to the packing density after tapping a bed of substance until no change in the packing density is seen. Bulk density and tapped density, can be determined using compendial bulk density apparatus, such as the method given in Test 616 “Bulk Density and Tapped Density,” United States Pharmacopeia 29, United States Pharmacopeial Convention, Inc., Rockville, Md., 2005 (“USP”).

We go through 1 compound from patent US20160045442A1, “STABLE PHARMACEUTICAL COMPOSITIONS OF MESALAMINE” (CADILA HEALTHCARE LIMITED, priority 2014, published 2016).

Take `Nc1ccc(O)c(C(=O)O)c1` [Mesalamine, mesalamine]: the bulk density amounted to 0.483 g/mL and the tapped density was 0.694 g/mL.
